Literature values in US20250360174A1, “ENGINEERED BACTERIA, ENGINEERED BIOFILMS, AND LIVING MATERIALS BASED ON BACILLUS SUBTILIS” (EAST CHINA UNIVERSITY OF SCIENCE AND TECHNOLOGY, priority 2024, published 2025).

Tested on: RAW264.7 cells

Q: With `O[C@H]1[C@@H]2OC[C@H](O[C@H]1O)[C@H]2O` [L-AHG, 3,6-anhydro-α-L-galactose] as the compound, how does the anti-inflammatory activity read?
A: The anti-inflammatory activity was “has been shown to have anti-inflammatory activity”.
